In patent US20150328198A1, “METHODS OF TREATING METHICILLIN-RESISTANT STAPHYLOCOCCUS AUREUS (MRSA) USING PPAR-GAMMA AGONISTS” (priority 2014, published 2015):

Test system: MRSA
Experiment: murine MRSA skin and soft tissue infection (SSTI) model
Type: in vivo, mice
Source text: Peroxisome Proliferator Activator Receptor-γ (PPAR-γ) is a nuclear receptor that inhibits inflammation and redirects macrophages towards an M2 phenotype by driving Arg-1, Scd-1, SSAT and fatty acid synthesis gene expression. PPAR-γ is therefore involved in the development of adipocytes as well as M2-MΦs.

SMILES	beneficial effects of treatment in PPAR-γ-/- mice (mice lacking myeloid PPAR-γ)	reduction of average time to healing (mouse, in vivo) [days]	number of viable bacteria in wounds/abscesses (day 12)	resolution of MRSA SSTIs (mouse, in vivo)
CN(CCOc1ccc(CC2SC(=O)NC2=O)cc1)c1ccccn1 (centres unmarked) [Rosiglitazone]	no effect	~5		
CCc1ccc(CCOc2ccc(CC3SC(=O)NC3=O)cc2)nc1 (centres unmarked) [Pioglitazone]		~5		
O=C(Nc1ccccc1)c1cc([N+](=O)[O-])ccc1Cl [GW9662]			greatly increased	non-resolving
